This note sets out measurements from US20260224548A1 (priority 2022, published 2026).

One assay concerns the target T1, HsEH (Homo sapiens, UniProt P34913).
T1 sequence (P34913 1-555): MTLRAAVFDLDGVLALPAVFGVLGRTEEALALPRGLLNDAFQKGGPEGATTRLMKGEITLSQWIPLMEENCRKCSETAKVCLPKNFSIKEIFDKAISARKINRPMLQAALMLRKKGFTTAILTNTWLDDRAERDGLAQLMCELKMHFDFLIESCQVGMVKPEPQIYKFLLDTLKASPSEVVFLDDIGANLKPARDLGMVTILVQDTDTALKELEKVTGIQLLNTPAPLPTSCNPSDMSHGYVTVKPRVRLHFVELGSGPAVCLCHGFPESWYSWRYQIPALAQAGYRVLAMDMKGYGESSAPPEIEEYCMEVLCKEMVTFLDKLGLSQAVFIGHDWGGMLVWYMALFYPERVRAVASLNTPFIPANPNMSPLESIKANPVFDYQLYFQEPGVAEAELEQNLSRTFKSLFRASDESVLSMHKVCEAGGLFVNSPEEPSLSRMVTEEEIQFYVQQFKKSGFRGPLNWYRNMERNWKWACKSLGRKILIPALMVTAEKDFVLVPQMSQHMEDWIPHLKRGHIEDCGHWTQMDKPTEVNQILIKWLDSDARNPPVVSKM
As to the kind of experiment: biochemical. It is filed as biochemical. The text has this:
(§1) Detection principle: a specific substrate, (3-phenyl-oxy)-acetic acid cyano-(6-methoxy-naphthalen-2-yl)methyl ester, namely PHOME, is non-fluorescent but can be hydrolyzed under the action of sEH enzyme to generate a product 6-methoxy-2-naphthaldehyde. The 6-methoxy-2-naphthaldehyde can emit fluorescence with a wavelength of 465 nm under 330 nm light wave excitation, and an intensity of the detected fluorescence signal is inversely proportional to an inhibitory effect on the sEH enzyme. Based on the above principle, the inhibition rates of samples with different concentrations were calculated compared with the positive control group. The IC50 value of the compound was calculated based on the inhibition rate and concentration using SPSS 20 software.
(§2) 25 mM Tris-HCl buffer (pH=7.4, containing 0.1 mg/mL BSA): […] BAS was added to 12.5 mL of 1 M Tris-HCl buffer, followed by diluting with purified water, and a resulting mixture was adjusted to a pH value of 7.4 with hydrochloric acid, and diluted to 500 mL.
(§3) PHOME solution: 0.79 mg PHOME was dissolved in 106 μL DMSO to obtain a 20 mM PHOME solution, which was diluted to ⅓ mM with Tris-HCl buffer before use.
(§4) sEH solution: sEH (5 mg/mL) stock solution was stored in a refrigerator at −80° C. and diluted to 4 μg/mL with 25 mM Tris-HCl buffer before use.
(§5) A sample powder to be tested was dissolved in DMSO to a 20 mM solution, stored in a refrigerator at −20° C. for later use, and diluted with Tris-HCl buffer to corresponding concentrations when used.
(§6) Experimental design: solvent group, 100% activity group (A), inhibitor group (B), positive control group (C), as shown in Table 1.
(§7) Three replicate wells were set for each sample, and the average value of the three replicate wells was the fluorescence value (F) of the compound to be tested. […] The IC50 value of the compound was calculated based on the inhibition rate and concentration using SPSS 20 software.

The next assay concerns the target T2, MsEH (Mus musculus, UniProt P34914).
T2 sequence (P34914 1-554): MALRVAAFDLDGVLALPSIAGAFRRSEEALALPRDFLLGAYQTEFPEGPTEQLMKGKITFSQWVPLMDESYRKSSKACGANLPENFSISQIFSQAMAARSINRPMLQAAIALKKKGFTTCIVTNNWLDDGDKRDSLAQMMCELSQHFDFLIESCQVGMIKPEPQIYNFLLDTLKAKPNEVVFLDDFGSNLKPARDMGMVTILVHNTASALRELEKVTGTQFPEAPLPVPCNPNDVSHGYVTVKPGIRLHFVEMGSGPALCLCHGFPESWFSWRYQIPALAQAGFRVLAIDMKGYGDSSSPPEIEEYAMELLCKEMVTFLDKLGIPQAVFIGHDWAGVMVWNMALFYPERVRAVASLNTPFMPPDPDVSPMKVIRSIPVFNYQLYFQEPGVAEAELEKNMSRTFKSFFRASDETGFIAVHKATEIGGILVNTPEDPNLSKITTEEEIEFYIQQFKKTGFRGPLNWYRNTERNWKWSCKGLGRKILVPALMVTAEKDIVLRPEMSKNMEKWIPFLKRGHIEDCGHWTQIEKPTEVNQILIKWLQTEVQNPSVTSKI
As to the kind of experiment: sEH inhibitory activity, PHOME fluorescence assay (MsEH). It is filed as biochemical.
Excerpt: as §1, §2, §3, §4, §5, §6, §7

Where [1] appears, read: PHOME substrate 50 μM, sEH 400 ng/ml, 37° C., 10 min, fluorescence 330/465 nm, read-out: HsEH IC50 (nM) Inhibitory activity against HsEH.
Setting [2] is: PHOME substrate 50 μM, sEH 400 ng/ml, 37° C., 10 min, fluorescence 330/465 nm, read-out: MsEH IC50 (nM) Inhibitory activity against MsEH.

Where two headings read alike, the source gives them in different places.

As to `CC12CC3CC(C)(C1)CC(NC(=O)Nc1ccc(CN4CCCN(C(=O)CC5CCN(CC(O)CO)CC5)CC4)cc1F)(C3)C2` [GL-22, 1-(4-((4-(2-(1-(2,3-dihydroxypropyl)piperidin-4-yl)acetyl)-1,4-diaza-1-yl)methyl)-2-fluorophenyl)-3-((1r,3R,5S,7r)-3,5-dimethyladamantan-1-yl) urea], the IC50 (commonly the concentration at which inhibition is half-maximal) at HsEH (setting [1]) worked out at 58.1 nM; on MsEH, 1.25 nM.
Turning to `CN(C)CCN1CCC(CC(=O)N2CCCN(Cc3ccc(NC(=O)NC45CC6CC(C)(CC(C)(C6)C4)C5)c(F)c3)CC2)CC1` [GL-23, 1-((1r,3R,5S,7r)-3,5-dimethyladamantan-1-yl)-3-(4-((4-(2-(1-(2-(dimethylamino)ethyl)piperidin-4-yl)acetyl)-1,4-diaza-1-yl)methyl)-2-fluorophenyl) urea], the IC50 on HsEH (setting [1]) was 2.59 nM; on MsEH, 0.67 nM.
On to `CCN(CC)CCN1CCC(CC(=O)N2CCCN(Cc3ccc(NC(=O)NC45CC6CC(C)(CC(C)(C6)C4)C5)c(F)c3)CC2)CC1` [GL-24, 1-(4-((4-(2-(1-(2-(diethylamino)ethyl)piperidin-4-yl)acetyl)-1,4-diaza-1-yl)methyl)-2-fluorophenyl)-3-((1r,3R,5S,7r)-3,5-dimethyladamantan-1-yl) urea], for which the IC50 at HsEH (setting [1]) worked out at 2.1 nM; against MsEH it was 1.37 nM.
`CC(=O)N1CCCN(C(=O)[C@H]2CCCN(C(=O)c3ccc(NC(=O)NC45CC6CC(C)(CC(C)(C6)C4)C5)c(F)c3)C2)CC1` [GL-101, 1-(4-((S)-3-(4-acetyl-1,4-diaza-1-carbonyl)piperidine-1-carbonyl)-2-fluorophenyl)-3-((1r,3R,5S,7S)-3,5-dimethyladamantan-1-yl) urea]: the values for the IC50 on HsEH and against MsEH were 0.6 nM and 0.26 nM, respectively.
`CCC(=O)N1CCCN(C(=O)[C@H]2CCCN(C(=O)c3ccc(NC(=O)NC45CC6CC(C)(CC(C)(C6)C4)C5)c(F)c3)C2)CC1` [GL-102, 1-((1r,3R,5S,7S)-3,5-dimethyladamantan-1-yl)-3-(2-fluoro-4-((S)-3-(4-propionyl-1,4-diaza-1-carbonyl)piperidine-1-carbonyl)phenyl) urea]: the IC50 at HsEH (setting [1]) was 0.56 nM; on MsEH it was 0.58 nM.
Regarding `CCC(C)C(=O)N1CCCN(C(=O)[C@H]2CCCN(C(=O)c3ccc(NC(=O)NC45CC6CC(C)(CC(C)(C6)C4)C5)c(F)c3)C2)CC1` (stereo partly drawn) [GL-104, 1-((1r,3R,5S,7S)-3,5-dimethyladamantan-1-yl)-3-(2-fluoro-4-((3S)-3-(4-(2-methylbutanoyl)-1,4-diaza-1-carbonyl)piperidine-1-carbonyl)phenyl) urea], the IC50 at HsEH (setting [1]) was found to be 1.4 nM; against MsEH it was 0.9 nM.
Turning to `CC12CC3CC(C)(C1)CC(NC(=O)Nc1ccc(C(=O)N[C@H]4CC[C@H](C(=O)NCCO)CC4)cc1F)(C3)C2` [ZT-110, 4-(3-((1r,3R,5S,7r)-3,5-dimethyladamantan-1-yl)ureido)-3-fluoro-N-((1r,4R)-4-((2-hydroxyethyl)carbamoyl)cyclohexyl)benzamide], the IC50 was determined as 0.8 nM at HsEH and 0.18 nM on MsEH.
As to `CC(O)CNC(=O)[C@H]1CC[C@H](NC(=O)c2ccc(NC(=O)NC34CC5CC(C)(CC(C)(C5)C3)C4)c(F)c2)CC1` (stereo partly drawn) [ZT-111, 4-(3-((1r,3R,5S,7r)-3,5-dimethyladamantan-1-yl)ureido)-3-fluoro-N-((1r,4R)-4-((2-hydroxypropyl)carbamoyl)cyclohexyl)benzamide], the IC50 was found to be 1.54 nM on HsEH (setting [1]) and 0.44 nM on MsEH.
On to `CC12CC3CC(C)(C1)CC(NC(=O)Nc1ccc(C(=O)N[C@H]4CC[C@H](C(=O)N(CCO)CCO)CC4)cc1F)(C3)C2` [ZT-112, N-((1r,4R)-4-(bis(2-hydroxyethyl)carbamoyl)cyclohexyl)-4-(3-((1r,3R,5S,7r)-3,5-dimethyladamantan-1-yl)ureido)-3-fluorobenzamide], for which the figures for the IC50 at HsEH (setting [1]) and on MsEH were 2.94 nM and 0.23 nM, respectively.
Taken in the same sequence, the figures for `CC12CC3CC(C)(C1)CC(NC(=O)Nc1ccc(C(=O)N[C@H]4CC[C@H](C(N)=O)CC4)cc1F)(C3)C2` [ZT-113, N-((1r,4R)-4-carbamoylcyclohexyl)-4-(3-((1r,3R,5S,7r)-3,5-dimethyladamantan-1-yl)ureido)-3-fluorobenzamide] were 0.84 nM and 0.35 nM.
`C[C@]12CC3CC(NC(=O)Nc4ccc(C(=O)NC5CCC(C(=O)NC(CO)CO)CC5)cc4F)(C1)C[C@@](C)(C3)C2` (stereo partly drawn) [ZT-114, N-((1r,4R)-4-((1,3-dihydroxypropan-2-yl)carbamoyl)cyclohexyl)-4-(3-((1r,3R,5S,7r)-3,5-dimethyladamantan-1-yl)ureido)-3-fluorobenzamide]: the IC50 at HsEH (setting [1]) came to 0.91 nM; on MsEH (setting [2]), 0.55 nM.
In the case of `CC12CC3CC(C)(C1)CC(NC(=O)Nc1ccc(C(=O)N[C@H]4CC[C@H](C(=O)NC(CO)(CO)CO)CC4)cc1F)(C3)C2` [ZT-115, N-((1r,4R)-4-((1,3-dihydroxy-2-(hydroxymethyl)propan-2-yl)carbamoyl)cyclohexyl)-4-(3-((1r,3R,5S,7r)-3,5-dimethyladamantan-1-yl)ureido)-3-fluorobenzamide], the IC50 stood at 0.35 nM on HsEH (setting [1]) and 0.12 nM on MsEH.
Regarding `CC12CC3CC(C)(C1)CC(NC(=O)Nc1ccc(C(=O)N[C@H]4CC[C@H](C(=O)NCCN5CCN(C(=O)OC(C)(C)C)CC5)CC4)cc1F)(C3)C2` [ZT-116, tert-butyl 4-(2-((1R,4r)-4-(4-(3-((1r,3R,5S,7r)-3,5-dimethyladamantan-1-yl)ureido)-3-fluorobenzamido)cyclohexane-1-carboxamido)ethyl) piperazine-1-carboxylate], the IC50 at HsEH (setting [1]) came out at 183 nM; at MsEH, 2 nM.
`C[C@]12CC3CC(NC(=O)Nc4ccc(C(=O)NC5CCC(C(=O)N6CCN(CCO)CC6)CC5)cc4F)(C1)C[C@@](C)(C3)C2` (stereo partly drawn) [ZT-117]: the IC50 at HsEH (setting [1]) is 16 nM; at MsEH (setting [2]), 0.53 nM.
“methyl 4-(2-(4-(4-(3-((1r,3R,5S,7r)-3,5-dimethyladamantan-1-yl) ureido)-3-fluorobenzyl)-1,4-diaza-1-yl)-2-oxoethyl) piperidine-1-carboxylate [GL-4]”: the IC50 at HsEH (setting [1]) stood at 1.1 nM; on MsEH (setting [2]), 0.41 nM.
